Here are results for 27 compounds from patent publication US20260042734A1, “HETEROCYCLIC RING-SUBSTITUTED AROMATIC COMPOUND, PREPARATION METHOD THEREFOR, AND USE THEREOF” (SHANGHAI HENLIUS BIOTECH, INC., priority 2023, published 2026).

human Kv1.3 (hKv1.3) channels, sequence (P22001 whole entry): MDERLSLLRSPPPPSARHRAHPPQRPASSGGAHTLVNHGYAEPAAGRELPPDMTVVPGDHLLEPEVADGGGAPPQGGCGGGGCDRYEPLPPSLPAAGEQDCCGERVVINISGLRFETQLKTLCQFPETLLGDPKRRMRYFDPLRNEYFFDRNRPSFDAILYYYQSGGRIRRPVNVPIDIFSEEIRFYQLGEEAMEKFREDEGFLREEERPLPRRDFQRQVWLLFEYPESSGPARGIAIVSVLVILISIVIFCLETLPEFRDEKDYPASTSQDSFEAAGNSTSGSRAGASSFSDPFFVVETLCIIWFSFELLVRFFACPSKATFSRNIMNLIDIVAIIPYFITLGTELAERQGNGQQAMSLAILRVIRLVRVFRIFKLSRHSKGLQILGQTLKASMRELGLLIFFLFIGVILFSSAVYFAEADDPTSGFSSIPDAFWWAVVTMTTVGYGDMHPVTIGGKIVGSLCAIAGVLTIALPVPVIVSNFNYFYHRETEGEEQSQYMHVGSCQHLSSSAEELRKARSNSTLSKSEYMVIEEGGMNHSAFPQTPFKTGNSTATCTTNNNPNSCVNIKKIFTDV

For one experiment, the target named is human Kv1.3 (hKv1.3) channels (Homo sapiens (Human), UniProt P22001). Put plainly: Electrophysiological (whole-cell patch clamp) determination of inhibitory activity on Kv1.3 channels. The format is cell-based. The note with it: HEK293T cells expressing hKv1.3; Hill fit of peak current inhibition. The method, then:
Test Example 1: Determination of Inhibitory Activity of Compounds on Kv1.3 (hKv1.3) Channels
Electrophysiological Testing
Potassium currents were measured using HEK293T cells expressing human Kv1.3 (hKv1.3) channels.
Prior to the start of electrophysiological experiments, Kv1.3 cell lines should be maintained within 70% of the maximum density in the logarithmic growth phase. All reagents should be pre-warmed to 37° C. before use. • 1) Aspirate the spent medium from the 6 cm culture dish. • 2) Add 1 mL of PBS, gently rock the dish to rinse the bottom, and then remove the PBS. • 3) Add 1 mL of trypsin, and gently rock the dish to ensure the trypsin covers all the cells. • 4) Incubate at 37° C. for 2-3 minutes, and then gently pipette the cells to suspend the adherent cells. • 5) Transfer the cell suspension to a new centrifuge tube and centrifuge at 1000 rpm for 5 minutes. Adjust the cell concentration to 2×10^3 cells/mL, and then seed 300 μL of the cell suspension into each well of a 24-well plate containing cell climbing slides. Perform patch clamp experiments after the cells adhered properly.
The intracellular and extracellular solutions used were designed to mimic the cell physiological ionic composition.
Kv1.3 extracellular solution: 137 mM NaCl, 1 mM MgCl2·6H2O, 4 mM KCl, 1.8 mM CaCl2·2H2O, 10 mM D-Glucose, 10 mM HEPES, pH adjusted to 7.4 with NaOH.
Kv1.3 intracellular solution: 140 mM KCl, 10 mM EGTA, 5 mM MgCl2·6H2O, 10 mM HEPES, […], pH adjusted to 7.2 with KOH.
Test Compound Dissolution
• 1) The test compound was dissolved in DMSO to prepare a 30 mM stock solution. • 2) The stock solution of the test compound was serially diluted with DMSO to obtain secondary stock solutions at concentrations of 300 μM, 100 μM, 30 μM, 10 μM, and 3 μM. • 3) 10 μL of each secondary stock solution was diluted into 10 mL of extracellular solution to achieve final concentrations of 300 nM, 100 nM, 30 nM, 10 nM, and 3 nM for electrophysiological testing.
Kv1.3 potassium current data were collected and stored on a computer using Patchmaster software via an EPC-10 amplifier. • 1) The cell climbing slide was removed from the cell culture dish using forceps, immersed with extracellular solution, and placed into the bath chamber on the stage of an inverted microscope. • 2) Glass micropipettes were pulled using a P-1000 micropipette puller, filled one-third of their volume with intracellular solution, and then mounted onto an electrode holder. • 3) Using a motorized micromanipulator (Scientifica-Double 1U), the recording electrode was brought into contact with the cell surface. […] The positive pressure was removed, and a negative pressure of 0.5 cm H2O was applied. It was observed that the sealing resistance increased rapidly until it reached the gigaseal. When the sealing resistance between the recording electrode and the cell membrane was >1 GΩ, negative pressure was applied to rupture the membrane to form the whole-cell recording mode. After the ruptured membrane stabilized, the membrane capacitance (Cs) and series resistance (Rs) were compensated. • 4) Stimulation procedure: the cell was voltage-clamped at −80 mV, depolarized to 40 mV for a duration of 200 ms, and then repolarized to −80 mV. Currents were recorded every 10 s. • 5) Kv1.3 potassium channel currents were recorded at room temperature prior to drug application. After the control current value reached a steady state (indicated by overlapping of the four most consecutive current traces), cumulative drug application was performed. The negative control (0.1% DMSO) was applied first, followed by […] of the drugs.
Raw Kv1.3 current peak data were extracted from PatchMaster software. The current inhibition rate was calculated as follows: Peak current inhibition rate=((1−(Peak current compound)/(Peak current vehicle))). […]
Compound `OC[C@@H](O)CN1CC(c2c(O)ccc(Cl)c2Cl)CC1=S` (mixture of isomers) [Compound 131, rac-4-(2,3-dichloro-6-hydroxyphenyl)-1-((S)-2,3-dihydroxypropyl)pyrrolidine-2-thione] had an IC50 of 30 to 100 nM.

The same experiment, now with this note: HEK-293T; compound concentration 10 nM; HEK293T cells expressing hKv1.3; peak current inhibition; read-out: 10 nM inhibition rate (Kv1.3).
Turning to `OCCCN1CC(c2c(O)ccc(Cl)c2Cl)CC1=S` (racemic) [Compound 1, rac-4-(2,3-Dichloro-6-hydroxyphenyl)-1-(3-hydroxypropyl)pyrrolidine-2-thione], the inhibition at 0.01 µM fell in the range of 25 to 50%.
Regarding `NCCCN1CC(c2c(O)ccc(Cl)c2Cl)CC1=S` (racemic) [Compound 2, rac-1-(3-Aminopropyl)-4-(2,3-dichloro-6-hydroxyphenyl)pyrrolidine-2-thione], the inhibition at 0.01 µM lay within 50 to 75%.
`ONCCCN1CC(c2c(O)ccc(Cl)c2Cl)CC1=S` (racemic) [Compound 26, rac-4-(2,3-Dichloro-6-hydroxyphenyl)-1-(3-(hydroxyamino)propyl)pyrrolidine-2-thione]: the inhibition at 0.01 µM was 0 to 5%.
For the compound `Oc1ccc(Cl)c(Cl)c1C1CC(=S)N(C2CC3(CNC3)C2)C1` (racemic) [Compound 34, rac-4-(2,3-Dichloro-6-hydroxyphenyl)-1-(2-azaspiro[3.3]heptan-6-yl)pyrrolidine-2-thione], the inhibition at 0.01 µM fell in the range of 25 to 50%.
Still for that read-out and setting: with `Oc1ccc(Cl)c(Cl)c1C1CC(=S)N(CCn2cccn2)C1` (racemic) [Compound 37, rac-1-(2-(1H-Pyrazol-1-yl)ethyl)-4-(2,3-dichloro-6-hydroxyphenyl)pyrrolidine-2-thione] the figure was under 0%.
Same read-out and setting: with `Cn1cc(N2CC(c3c(O)ccc(Cl)c3Cl)CC2=S)cn1` (racemic) [Compound 40, 4-(2,3-dichloro-6-hydroxyphenyl)-1-(1-methyl-1H-pyrazol-4-yl)pyrrolidine-2-thione] the figure was 50 to 75%; with `C=Cn1cc(N2CC(c3c(O)ccc(Cl)c3Cl)CC2=S)cn1` (racemic) [Compound 66, rac-4-(2,3-dichloro-6-hydroxyphenyl)-1-(1-vinyl-1H-pyrazol-4-yl)pyrrolidine-2-thione], 25 to 50%; with `CS(=O)(=O)n1cc(N2CC(c3c(O)ccc(Cl)c3Cl)CC2=S)cn1` (racemic) [Compound 68, rac-4-(2,3-dichloro-6-hydroxyphenyl)-1-(1-(methylsulfonyl)-1H-pyrazol-4-yl)pyrrolidine-2-thione], 25 to 50%.
On to `CS(=O)(=O)n1cc(N2CC(c3c(O)ccc(Cl)c3Cl)CC2=O)cn1` (racemic) [Compound 92, 4-(2,3-Dichloro-6-hydroxyphenyl)-1-(1-(methylsulfonyl)-1H-pyrazol-4-yl)pyrrolidin-2-one], for which the inhibition at 0.01 µM is 50 to 75%.
For the compound `O=C1CC(c2c(O)ccc(Cl)c2Cl)CN1CCCNO` (racemic) [Compound 103, 4-(2,3-Dichloro-6-hydroxyphenyl)-1-(3-(hydroxyamino)propyl)pyrrolidin-2-one], the inhibition at 0.01 µM is at least 75%.
On the same count and under the same terms, the value for `Oc1ccc(Cl)c(Cl)c1C1CC(=S)N([C@H]2C[C@H](O)C2)C1` (mixture of isomers) [Compound 124, rac-4-(2,3-dichloro-6-hydroxyphenyl)-1-((1r,3r)-3-hydroxycyclobutyl)pyrrolidine-2-thione] was 25 to 50%; that for `OCC1(CN2CC(c3c(O)ccc(Cl)c3Cl)CC2=S)CC1` (racemic) [Compound 125, rac-4-(2,3-Dichloro-6-hydroxyphenyl)-1-((1-(hydroxymethyl)cyclopropyl)methyl)pyrrolidine-2-thione] was 0 to 5%; that for `OC[C@H]1C[C@H](N2CC(c3c(O)ccc(Cl)c3Cl)CC2=S)C1` (mixture of isomers) [Compound 126, rac-4-(2,3-dichloro-6-hydroxyphenyl)-1-((1r,3r)-3-(hydroxymethyl)cyclobutyl)pyrrolidine-2-thione] was 0 to 5%.
For the compound `OC[C@H]1C[C@@H](N2CC(c3c(O)ccc(Cl)c3Cl)CC2=S)C1` (mixture of isomers) [Compound 127, rac-4-(2,3-dichloro-6-hydroxyphenyl)-1-((1s,3s)-3-(hydroxymethyl)cyclobutyl)pyrrolidine-2-thione], the inhibition at 0.01 µM was in the range of 0 to 5%.
Same read-out and setting: with `Oc1ccc(Cl)c(Cl)c1C1CC(=S)N(C[C@H]2C[C@@H](O)C2)C1` (mixture of isomers) [Compound 128, rac-4-(2,3-dichloro-6-hydroxyphenyl)-1-(((1s,3s)-3-hydroxycyclobutyl)methyl)pyrrolidine-2-thione] the figure was 0 to 5%; with `Oc1ccc(Cl)c(Cl)c1C1CC(=S)N(C[C@H]2C[C@H](O)C2)C1` (mixture of isomers) [Compound 129, rac-4-(2,3-dichloro-6-hydroxyphenyl)-1-(((1r,3r)-3-hydroxycyclobutyl)methyl)pyrrolidine-2-thione], 0 to 5%; with `OCCCCN1CC(c2c(O)ccc(Cl)c2Cl)CC1=S` (racemic) [Compound 130, rac-4-(2,3-dichloro-6-hydroxyphenyl)-1-(4-hydroxybutyl)pyrrolidine-2-thione], 25 to 50%.
The same measure, in the same setting: with `OC[C@@H](O)CN1CC(c2c(O)ccc(Cl)c2Cl)CC1=S` (mixture of isomers) [Compound 131, rac-4-(2,3-dichloro-6-hydroxyphenyl)-1-((S)-2,3-dihydroxypropyl)pyrrolidine-2-thione] the figure was 50 to 75%.
As for `OCCCN1CC(c2c(O)ccc(F)c2Cl)CC1=S` (racemic) [Compound 148, rac-4-(2-chloro-3-fluoro-6-hydroxyphenyl)-1-(3-hydroxypropyl)pyrrolidine-2-thione], the inhibition at 0.01 µM lay within 0 to 5%.
As for `OCCCN1CC(c2c(O)ccc(Cl)c2F)CC1=S` (racemic) [Compound 149, rac-4-(3-chloro-2-fluoro-6-hydroxyphenyl)-1-(3-hydroxypropyl)pyrrolidine-2-thione], the inhibition at 0.01 µM was under 0%.
On the same count and under the same terms, the value for `Oc1ccc(Cl)c(Cl)c1C1CC(=S)N(c2cnn(C3CC3)c2)C1` (racemic) [Compound 150, rac-1-(1-cyclopropyl-1H-pyrazol-4-yl)-4-(2,3-dichloro-6-hydroxyphenyl)pyrrolidine-2-thione] was 50 to 75%; that for `Oc1ccc(Cl)c(Cl)c1C1CC(=S)N(c2cnn3c2CCC3)C1` (racemic) [Compound 159, rac-4-(2,3-dichloro-6-hydroxyphenyl)-1-(5,6-dihydro-4H-pyrrolo[1,2-b]pyrazol-3-yl)pyrrolidine-2-thione] was 25 to 50%; that for `O=C1CC(c2c(O)ccc(Cl)c2Cl)CN1c1cnn2c1CCC2` (racemic) [Compound 160, rac-4-(2,3-dichloro-6-hydroxyphenyl)-1-(5,6-dihydro-4H-pyrrolo[1,2-b]pyrazol-3-yl)pyrrolidin-2-one] was 25 to 50%.
Same read-out and setting: with `Oc1ccc(Cl)c(Cl)c1C1CC(=S)N(c2cnn3c2OCC3)C1` (racemic) [Compound 161, rac-4-(2,3-dichloro-6-hydroxyphenyl)-1-(2,3-dihydropyrazolo[5,1-b]oxazol-7-yl)pyrrolidine-2-thione] the figure was 50 to 75%; with `Oc1ccc(Cl)c(Cl)c1C1CC(=S)N(c2cnn3c2OCCC3)C1` (racemic) [Compound 162, rac-4-(2,3-dichloro-6-hydroxyphenyl)-1-(6,7-dihydro-5H-pyrazolo[5,1-b][1,3]oxazin-3-yl)pyrrolidine-2-thione], 0 to 5%.
As for `Oc1ccc(Cl)c(Cl)c1C1CC(=S)N(c2cnn3c2COCC3)C1` (racemic) [Compound 163, rac-4-(2,3-dichloro-6-hydroxyphenyl)-1-(6,7-dihydro-4H-pyrazolo[5,1-c][1,4]oxazin-3-yl)pyrrolidine-2-thione], the inhibition at 0.01 µM fell in the range of 25 to 50%.

Staying with this experiment, now noted: compound concentration 10 nM; HEK293T cells expressing hKv1.3; peak current inhibition.
Turning to “4-(2,3-Dichloro-6-hydroxyphenyl)-1-(2,2-difluoro-3-hydroxypropyl)pyrrolidine-2-thione [Compound 121]”, the “10 nM inhibition rate (Kv1.3)” value is on record as “A (A = inhibition ≥75%)”.

The term IC50 denotes the concentration that inhibits the measured activity by half. The low end stands for greater potency, the high end for weaker potency. The term inhibition denotes the change of the read-out against control, counted positive when it falls.
